Assay results as given in US20260265233A1, “BENZOTHIOPHENE DERIVATIVES AS RXFP1 AGONISTS” (BRISTOL-MYERS SQUIBB COMPANY, priority 2021, published 2026).

Molecular target: T1, human RXFP1 (Homo sapiens, UniProt Q9HBX9)
T1 construct: expressed in transfected cells
T1 sequence (Q9HBX9 1-757): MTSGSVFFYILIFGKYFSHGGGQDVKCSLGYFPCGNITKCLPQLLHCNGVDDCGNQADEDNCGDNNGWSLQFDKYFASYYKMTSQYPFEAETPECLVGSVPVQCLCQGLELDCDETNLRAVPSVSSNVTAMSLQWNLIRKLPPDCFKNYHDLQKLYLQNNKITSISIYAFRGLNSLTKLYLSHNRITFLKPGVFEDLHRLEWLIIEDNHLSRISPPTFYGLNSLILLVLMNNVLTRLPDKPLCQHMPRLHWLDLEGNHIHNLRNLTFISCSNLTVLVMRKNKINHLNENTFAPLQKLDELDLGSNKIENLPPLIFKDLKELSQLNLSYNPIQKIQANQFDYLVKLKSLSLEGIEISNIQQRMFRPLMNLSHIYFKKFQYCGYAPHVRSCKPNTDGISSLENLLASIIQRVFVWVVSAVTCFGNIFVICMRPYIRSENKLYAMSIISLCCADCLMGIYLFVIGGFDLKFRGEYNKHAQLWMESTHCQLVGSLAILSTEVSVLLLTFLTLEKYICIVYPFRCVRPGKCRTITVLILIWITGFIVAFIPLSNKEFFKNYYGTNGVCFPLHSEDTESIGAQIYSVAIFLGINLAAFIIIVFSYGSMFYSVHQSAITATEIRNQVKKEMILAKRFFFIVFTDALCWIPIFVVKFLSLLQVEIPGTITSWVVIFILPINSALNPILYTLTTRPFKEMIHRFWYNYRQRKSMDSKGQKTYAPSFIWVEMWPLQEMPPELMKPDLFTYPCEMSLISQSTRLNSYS
Experiment: hRXFP1 HEK293 cAMP assay (HTRF)
Format: cell-based
Settings: HEK293 cells stably expressing human RXFP1; 30 min at rt; intracellular cAMP by HTRF
How it was run: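 HEK293 cells stably expressing human RXFP1 treated 30 min at rt with compound (0.010 nM to 50 μM, 2% DMSO) in HBSS/HEPES buffer with 0.5 mM IBMX. Intracellular cAMP measured by HTRF (665/590 nm ratio) against a cAMP standard curve; potency fitted by 4-parameter logistic.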

Row | EC50 [nM] | Compound
1 | 2710 | COc1ccc(C2CCCN(CCS(C)(=O)=O)CC2)cc1C(=O)Nc1c(C(=O)Nc2ccc(F)c(C(F)(F)F)c2)sc2cc(C(F)(F)F)ccc12 (centres unmarked) [Example 71, N-(4-fluoro-3-(trifluoromethyl)phenyl)-3-(2-methoxy-5-(1-(2-(methylsulfonyl)ethyl)azepan-4-yl)benzamido)-6-(trifluoromethyl) benzo[b] thiophene-2-carboxamide]
2 | 491 | COc1ccc(S(=O)(=O)N2CCC[C@@H](NC(=O)CCO)C2)cc1C(=O)Nc1c(C(=O)Nc2ccc(F)c(C(F)(F)F)c2)sc2cc(C(F)(F)F)ccc12 [Example 189, (R)-N-(4-fluoro-3-(trifluoromethyl)phenyl)-3-(5-((3-(3-hydroxy-propanamido)piperidin-1-yl)sulfonyl)-2-methoxy-benzamido)-6-(trifluoromethyl) benzo[b] thiophene-2-carboxamide]
3 | 737 | COc1ccc(C2=NOC3(CCN(C(=O)C(C)(C)CO)CC3)C2)cc1C(=O)Nc1c(C(=O)Nc2ccc(F)c(C(F)(F)F)c2)sc2cc(C(F)(F)F)ccc12 [Example 269, N-(4-fluoro-3-(trifluoromethyl)phenyl)-3-(5-(8-(3-hydroxy-2,2-dimethyl-propanoyl)-1-oxa-2,8-diazaspiro[4.5]dec-2-en-3-yl)-2-methoxy-benzamido)-6-(trifluoromethyl) benzo[b] thiophene-2-carboxamide]
4 | 1410 | COc1ccc(N2CCCC2=O)cc1C(=O)Nc1c(C(=O)Nc2ccc(F)c(C(F)(F)F)c2)sc2cc(C(F)(F)F)ccc12 [Example 290, N-[4-fluoro-3-(trifluoromethyl)phenyl]-3-[2-methoxy-5-(2-oxopyrrolidin-1-yl)benzamido]-6-(trifluoromethyl)-1-benzothiophene-2-carboxamide]
5 | 48.4 | COc1ccc(C2CCCN(C(=O)C(C)(C)CO)C2)cc1C(=O)Nc1c(C(=O)Nc2ccc(F)c(C(F)(F)F)c2)sc2cc(C(F)(F)F)ccc12 (single isomer, unassigned) [Example 93, N-[4-fluoro-3-(trifluoromethyl)phenyl]-3-{5-[1-(3-hydroxy-2,2-dimethyl-propanoyl)piperidin-3-yl]-2-methoxy-benzamido}-6-(trifluoromethyl)-1-benzothiophene-2-carboxamide]
6 | 1110 | COc1ccc(C2CCCN(CCO)C2)cc1C(=O)Nc1c(C(=O)Nc2ccc(F)c(C(F)(F)F)c2)sc2cc(C(F)(F)F)ccc12 (centres unmarked) [Example 85, N-(4-fluoro-3-(trifluoromethyl)phenyl)-3-(5-(1-(2-hydroxyethyl)piperidin-3-yl)-2-methoxy-benzamido)-6-(trifluoromethyl) benzo[b] thiophene-2-carboxamide]
7 | 467 | COc1ccc(C#CCO)cc1C(=O)Nc1c(C(=O)Nc2ccc(F)c(C(F)(F)F)c2)sc2cc(C(F)(F)F)ccc12 [Example 42, N-(4-fluoro-3-(trifluoromethyl)phenyl)-3-(5-(3-hydroxyprop-1-yn-1-yl)-2-methoxybenzamido)-6-(trifluoromethyl)benzo[b]thiophene-2-carboxamide]
8 | 1280 | COc1ccc(N2CCOC(CC(C)(C)O)C2)cc1C(=O)Nc1c(C(=O)Nc2ccc(F)c(C(F)(F)F)c2)sc2cc(C(F)(F)F)ccc12 (single isomer, unassigned) [Example 227, N-(4-fluoro-3-(trifluoromethyl)phenyl)-3-(5-(2-(2-hydroxy-2-methylpropyl)morpholino)-2-methoxy-benzamido)-6-(trifluoromethyl) benzo[b] thiophene-2-carboxamide]
9 | 398 | COc1ccc(-c2nc(N3CCOCC3)no2)cc1C(=O)Nc1c(C(=O)Nc2ccc(F)c(C(F)(F)F)c2)sc2cc(C(F)(F)F)ccc12 [Example 277, N-[4-fluoro-3-(trifluoromethyl)phenyl]-3-{2-methoxy-5-[3-(morpholin-4-yl)-1,2,4-oxadiazol-5-yl]benzamido}-6-(trifluoromethyl)-1-benzothiophene-2-carboxamide]
10 | 823 | COc1cc(F)c(C(=O)N2CC[C@@H](O)C2)cc1C(=O)Nc1c(C(=O)Nc2ccc(F)c(C(F)(F)F)c2)sc2cc(C(F)(F)F)ccc12 [Example 183, (R)-N-(4-fluoro-3-(trifluoromethyl)phenyl)-3-(4-fluoro-5-(3-hydroxy-pyrrolidine-1-carbonyl)-2-methoxy-benzamido)-6-(trifluoromethyl) benzo[b] thiophene-2-carboxamide]
11 | 400 | COc1ccc(C2CC2C(=O)N2CC(OC)C2)cc1C(=O)Nc1c(C(=O)Nc2ccc(F)c(C(F)(F)F)c2)sc2cc(C(F)(F)F)ccc12 (centres unmarked) [Example 167, N-[4-fluoro-3-(trifluoromethyl)phenyl]-3-{2-methoxy-5-[2-(3-methoxyazetidine-1-carbonyl)cyclopropyl]benzamido}-6-(trifluoromethyl)-1-benzothiophene-2-carboxamide]
12 | 3050 | COc1ccc(C2CC2C(=O)N2CC(C(C)(C)O)C2)cc1C(=O)Nc1c(C(=O)Nc2ccc(F)c(C(F)(F)F)c2)sc2cc(C(F)(F)F)ccc12 (centres unmarked) [Example 165, N-[4-fluoro-3-(trifluoromethyl)phenyl]-3-(5-{2-[3-(2-hydroxypropan-2-yl)azetidine-1-carbonyl]cyclopropyl}-2-methoxy-benzamido)-6-(trifluoromethyl)-1-benzothiophene-2-carboxamide]
13 | 0.5 | COc1ccc(-c2cc([C@H](OC(=O)NC3CCC3)C(F)(F)F)ccc2F)cc1C(=O)Nc1c(C(=O)Nc2ccc(F)c(C(F)(F)F)c2)sc2cc(C(F)(F)F)ccc12 [Example 22, (S)-2,2,2-trifluoro-1-(6-fluoro-3′-((2-((4-fluoro-3-(trifluoromethyl)phenyl)carbamoyl)-6-(trifluoromethyl)benzo[b]thiophen-3-yl)carbamoyl)-4′-methoxy-[1, 1′-biphenyl]-3-yl) ethyl cyclobutylcarbamate]
14 | 701 | COc1ncc(C(=O)N2CC3(COC3)C2)cc1C(=O)Nc1c(C(=O)Nc2ccc(F)c(C(F)(F)F)c2)sc2cc(C(F)(F)F)ccc12 [Example 172, N-(2-((4-fluoro-3-(trifluoromethyl)phenyl)carbamoyl)-6-(trifluoromethyl)benzo[b]thiophen-3-yl)-2-methoxy-5-(2-oxa-6-azaspiro[3.3]heptane-6-carbonyl) nicotinamide]
15 | 379 | COc1ccc(C2=NOC3(CCN(C(=O)CO)CC3)C2)cc1C(=O)Nc1c(C(=O)Nc2ccc(F)c(C(F)(F)F)c2)sc2cc(C(F)(F)F)ccc12 [Example 271, N-(4-fluoro-3-(trifluoromethyl)phenyl)-3-(5-(8-(2-hydroxyacetyl)-1-oxa-2,8-diazaspiro[4.5]dec-2-en-3-yl)-2-methoxy-benzamido)-6-(trifluoromethyl) benzo[b] thiophene-2-carboxamide]
16 | 1260 | COc1ccc(-c2cc(CO)on2)cc1C(=O)Nc1c(C(=O)Nc2ccc(F)c(C(F)(F)F)c2)sc2cc(C(F)(F)F)ccc12 [Example 287, N-(4-fluoro-3-(trifluoromethyl)phenyl)-3-(5-(5-(hydroxymethyl)isoxazol-3-yl)-2-methoxy-benzamido)-6-(trifluoromethyl) benzo[b] thiophene-2-carboxamide]
17 | 545 | COc1ccc(C2=NOC3CN(C(=O)CO)CC23)cc1C(=O)Nc1c(C(=O)Nc2ccc(F)c(C(F)(F)F)c2)sc2ccccc12 (single isomer, unassigned) [Example 248, N-[4-fluoro-3-(trifluoromethyl)phenyl]-3-{5-[5-(2-hydroxyacetyl) 3aH,4H,5H,6H, 6aH-pyrrolo[3,4-d][1,2]oxazol-3-yl]-2-methoxy-benzamido}-1-benzothiophene-2-carboxamide]
18 | 978 | COc1ccc(C2CCCN(CC(=O)N(C)C)C2)cc1C(=O)Nc1c(C(=O)Nc2ccc(F)c(C(F)(F)F)c2)sc2cc(C(F)(F)F)ccc12 (single isomer, unassigned) [Example 82, 3-(5-(1-(2-(dimethylamino)-2-oxoethyl)piperidin-3-yl)-2-methoxy-benzamido)-N-(4-fluoro-3-(trifluoromethyl)phenyl)-6-(trifluoromethyl) benzo[b] thiophene-2-carboxamide]
19 | 22.5 | COc1ccc(CNC(c2ccc(F)c(-c3ccc(OC)c(C(=O)Nc4c(C(=O)Nc5ccc(F)c(C(F)(F)F)c5)sc5cc(C(F)(F)F)ccc45)c3)c2)C(F)(F)F)cc1OC (single isomer, unassigned) [Example 114, 3-(5′-(1-((3,4-dimethoxybenzyl)amino)-2,2,2-trifluoroethyl)-2′-fluoro-4-methoxy-[1,1′-biphenyl]-3-carboxamido)-N-(4-fluoro-3-(trifluoromethyl)phenyl)-6-(trifluoromethyl) benzo[b] thiophene-2-carboxamide]

Row | Compound | EC50 [nM]
20 | N-(4-fluoro-3- (trifluoromethyl) phenyl)-3-(4- methoxy-3′- (morpholino- sulfonyl)-[1,1′- biphenyl]-3- carboxamido)- 6- (trifluoromethyl) benzo[b] thiophene-2- carboxamide [Example 122] | 41.8
